Reference: patent publication US8932597B2 (priority 2008, dated 2015)

Test system: anti-M2 human monoclonal antibody Z3G1
Assay type: binding

| Substance | Signal (peptides that bind to Z3G1) | other results |
| --- | --- | --- |
| 1442 (CLTEVETPIRLLTEVETPICLTEVETPIR; epitope peptide; MISC_FEATURE (1)..(1): C is an attachment site for a CLIP; MISC_FEATURE (10)..(10): R is an attachment site for a CLIP; MISC_FEATURE (11)..(11): L is an attachment site for a CLIP; MISC_FEATURE (29)..(29): R is an attachment site for a CLIP) [compound 1442] | 2057 |  |
| 1568 (ILLTEVETPIRNEWGCRCNDSSD; epitope peptide) [compound 1568] |  | Signal (peptides that show specific binding to Z3G1): 1044 |
| 1511 (CLTEVETPIRLLTEVETPICETPIRNEWG; epitope peptide; MISC_FEATURE (1)..(1): C is an attachment site for a CLIP; MISC_FEATURE (10)..(10): R is an attachment site for a CLIP; MISC_FEATURE (11)..(11): L is an attachment site for a CLIP; MISC_FEATURE (29)..(29): G is an attachment site for a CLIP) [compound 1511] |  | Signal (peptides that show specific binding to Z3G1): 2175 |
| 1326 (MSLLCEVETPIRCE; epitope peptide) [compound 1326] | 2772 |  |
| 1292 (MSLLREVETPIRNEWGCRCN; epitope peptide) [compound 1292] | 2699 |  |
| 1276 (MSLQTEVETPIRNEWGCRCN; epitope peptide) [compound 1276] | 2792 |  |
| 1366 (SLLCEVECPIRNE; epitope peptide) [compound 1366] | 2377 |  |
| 1459 (CTEVETPIRNLLTEVETPICTEVETPIRN; epitope peptide; MISC_FEATURE (1)..(1): C is an attachment site for a CLIP; MISC_FEATURE (10)..(10): N is an attachment site for a CLIP; MISC_FEATURE (11)..(11): L is an attachment site for a CLIP; MISC_FEATURE (29)..(29): N is an attachment site for a CLIP) [compound 1459] | 1749 |  |
| 1515 (CETPIRNEWGLLTEVETPICETPIRNEWG; epitope peptide; MISC_FEATURE (1)..(1): C is an attachment site for a CLIP; MISC_FEATURE (10)..(10): G is an attachment site for a CLIP; MISC_FEATURE (11)..(11): L is an attachment site for a CLIP; MISC_FEATURE (29)..(29): G is an attachment site for a CLIP) [compound 1515] |  | Signal (peptides that show specific binding to Z3G1): 2427 |
| 1497 (CVETPIRNEWLLTEVETPICVETPIRNEW; epitope peptide; MISC_FEATURE (1)..(1): C is an attachment site for a CLIP; MISC_FEATURE (10)..(10): W is an attachment site for a CLIP; MISC_FEATURE (11)..(11): L is an attachment site for a CLIP; MISC_FEATURE (29)..(29): W is an attachment site for a CLIP) [compound 1497] | 1817 |  |
| 1295 (MSLLWEVETPIRNEWGCRCN; epitope peptide) [compound 1295] | 2531 |  |
| 1573 (QLLTEVETPIRNEWGCRCNDSSD; epitope peptide) [compound 1573] |  | Signal (peptides that show specific binding to Z3G1): 1627 |
| 1367 (SLLCEVCTPIRNE; epitope peptide) [compound 1367] | 2283 |  |
| 1279 (MSLLAEVETPIRNEWGCRCN; epitope peptide) [compound 1279] | 2807 |  |
| 1552 (SLLCEVGSLCTEV; epitope peptide) [compound 1552] |  | Signal (peptides that show specific binding to Z3G1): 2722 |
| 1265 (MWLLTEVETPIRNEWGCRCN; epitope peptide) [compound 1265] | 2615 |  |
| 1345 (MSCLCECGMSLLCEV; epitope peptide) [compound 1345] | 1307 |  |
| 1287 (MSLLLEVETPIRNEWGCRCN; epitope peptide) [compound 1287] | 2804 |  |
| 1296 (MSLLYEVETPIRNEWGCRCN; epitope peptide) [compound 1296] | 2464 |  |
| 1382 (CLLTEVETCIRNEWG; epitope peptide) [compound 1382] | 2296 |  |
| 1398 (SLLTEVETPIRNECC; epitope peptide) [compound 1398] | 1493 |  |
| 1572 (PLLTEVETPIRNEWGCRCNDSSD; epitope peptide) [compound 1572] |  | Signal (peptides that show specific binding to Z3G1): 1641 |
| 1323 (MCLLTEVCTPIRNE; epitope peptide) [compound 1323] | 1407 |  |
| 1253 (MFLLTEVETPIRNEWGCRCN; epitope peptide) [compound 1253] | 1707 |  |
| 1328 (MSLLCEVETPCRNE; epitope peptide) [compound 1328] | 2652 |  |

| Substance | Signal (peptides that bind to Z3G1) | other results |
| --- | --- | --- |
| 1474 (CVETPIRNEWSLLTEVETPCEVETPIRNE; epitope peptide; MISC_FEATURE (1)..(1): C is an attachment site for a CLIP; MISC_FEATURE (10)..(10): W is an attachment site for a CLIP; MISC_FEATURE (11)..(11): S is an attachment site for a CLIP; MISC_FEATURE (29)..(29): E is an attachment site for a CLIP) [compound 1474] | 1986 |  |
| 1473 (CEVETPIRNESLLTEVETPCEVETPIRNE; epitope peptide; MISC_FEATURE (1)..(1): C is an attachment site for a CLIP; MISC_FEATURE (10)..(10): E is an attachment site for a CLIP; MISC_FEATURE (11)..(11): S is an attachment site for a CLIP; MISC_FEATURE (29)..(29): E is an attachment site for a CLIP) [compound 1473] | 2006 |  |
| 1299 (MSLLTEVATPIRNEWGCRCN; epitope peptide) [compound 1299] | 2633 |  |
| 1550 (SLLCEVGCLLTEV; epitope peptide) [compound 1550] |  | Signal (peptides that show specific binding to Z3G1): 1997 |
| 1564 (ELLTEVETPIRNEWGCRCNDSSD; epitope peptide) [compound 1564] |  | Signal (peptides that show specific binding to Z3G1): 2201 |
| 1387 (SLLCEVETPIRNEWC; epitope peptide) [compound 1387] | 2406 |  |
| 1335 (MCLLTEVGMSCLTEV; epitope peptide) [compound 1335] | 1869 |  |
| 1301 (MSLLTEVFTPIRNEWGCRCN; epitope peptide) [compound 1301] | 1858 |  |
| 1342 (MSLLTCVGMSLLCEV; epitope peptide) [compound 1342] | 2712 |  |
| MSLLTEVETPIRNEWGCRCN (epitope peptide) [SEQ ID NO: 1149] |  | Binding to Z3G1 (in words): very best specific binder |
| 1566 (GLLTEVETPIRNEWGCRCNDSSD; epitope peptide) [compound 1566] |  | Signal (peptides that show specific binding to Z3G1): 2321 |
| 1480 (CEVETPIRNELLTEVETPICEVETPIRNE; epitope peptide; MISC_FEATURE (1)..(1): C is an attachment site for a CLIP; MISC_FEATURE (10)..(10): E is an attachment site for a CLIP; MISC_FEATURE (11)..(11): L is an attachment site for a CLIP; MISC_FEATURE (29)..(29): E is an attachment site for a CLIP) [compound 1480] | 1394 |  |
| 1256 (MILLTEVETPIRNEWGCRCN; epitope peptide) [compound 1256] | 1634 |  |
| 1294 (MSLLVEVETPIRNEWGCRCN; epitope peptide) [compound 1294] | 2732 |  |
| 1581 (SLLFEVETPIRNEWGCRCNDSSD; epitope peptide) [compound 1581] |  | Signal (peptides that show specific binding to Z3G1): 2137 |
| 1259 (MMLLTEVETPIRNEWGCRCN; epitope peptide) [compound 1259] | 2666 |  |
| 1495 (CTEVETPIRNLLTEVETPICVETPIRNEW; epitope peptide; MISC_FEATURE (1)..(1): C is an attachment site for a CLIP; MISC_FEATURE (10)..(10): N is an attachment site for a CLIP; MISC_FEATURE (11)..(11): L is an attachment site for a CLIP; MISC_FEATURE (29)..(29): W is an attachment site for a CLIP) [compound 1495] | 2088 |  |
| 1391 (SLLCEVETPICNEWG; epitope peptide) [compound 1391] | 2536 |  |
| 1272 (MSLHTEVETPIRNEWGCRCN; epitope peptide) [compound 1272] | 2058 |  |
| 1313 (CMSLLCEVETPIRNE; epitope peptide) [compound 1313] | 2582 |  |
| 1559 (SLLCEVGSLLTCV; epitope peptide) [compound 1559] |  | Signal (peptides that show specific binding to Z3G1): 1972 |
| 1339 (MCLLTEVGMSLLCEV; epitope peptide) [compound 1339] | 2234 |  |
| 1333 (MSLLCEVETPIRNE; epitope peptide) [compound 1333] | 2454 |  |
| 1273 (MSLMTEVETPIRNEWGCRCN; epitope peptide) [compound 1273] | 2804 |  |
| 1280 (MSLLDEVETPIRNEWGCRCN; epitope peptide) [compound 1280] | 2763 |  |
